Measured values reported in patent publication US20050171424A1, “Methods for imaging the lymphatic system using dendrimer-based contrast agents” (The Gov. of the USA as rep. by the Secretary of the Dept. …, priority 2004, published 2005).
“Also recorded” adds a separate entry of the source.

What was measured:
[1] = tested on: lymph nodes and lymphatic vessels of IL-15 transgenic mice; assay: 3D-micro-MRL in IL-15 transgenic lymphoproliferative/neoplastic disease model; assay type: in vivo; conditions: 45 minutes after injection
Description: Eight- to 10-month old IL-15 transgenic mice (on a C57BL6 background) were used as a chronic lymphoproliferative/neoplastic disease model because they manifested selective expansion of NK, CD8^+NK-T, γδIELs, and CD8 T cells in the periphery. Most of the lymph nodes collected from an aged IL-15 transgenic mouse were enlarged in size. The lesion of proliferated monoclonal lymphocytes often involved the lung and the subcutaneous lymphatic tissue.
(§1) The mice were anesthetized with 1.15 mg sodium pentobarbital (Dainabot, Osaka, Japan) i.p., and then injected intracutaneously with 0.1 μmolGd of PAMAM-G8, DAB-G5, PAMAM-G4, Gadomer-17, or GPDM into four middle phalanges in all four extremities. Dynamic micro-MR images were obtained using a 1.5-Tesla superconductive magnet unit (Signa LX, General Electric Medical System, Milwaukee, Wis.) with a round birdcage type coil of 3 cm diameter fixed by a custom-made coil holder. Four to eight female mice (7 weeks old, 18-21 g body weight) in each group were used and each contrast agent was prepared at least three separate times for these imaging studies. The mice were wrapped with gauze to stabilize their body temperature and were placed at the center of the coils.
(§2) A 3D-fast spoiled gradient echo [3D-fastSPGR (efgre3d package; Signa Horizon, GE); repetition time/echo time 28.5/7.9 msec; inversion time 65 msec; 31.2 kHz, flip angle 30°, four excitations; 40 slice-encoding steps; scan time 7 min 36 seconds] with chemical shift fat-suppression was used 10, 20, 30, and 45 min after injection of the contrast agents. The coronal images were reconstructed with 0.6-mm section thickness at every 0.3-mm. […] The intensities of the regions of interest (ROIs) (for example, a whole axillary lymph node, and the liver) were measured, and then the time-intensity curves analyzed. The data were expressed as the axillary lymph node-to-muscle and the axillary lymph node-to-liver ratios. […] Two board-certified radiologists separately read a set of stereo views of 3D-MRL for all studies, and estimated the visualization of the thoracic duct. […]

[2] = tested on: external iliac lymph nodes in infection model; assay: 3D-micro-MRL of nude mice with spontaneous oral ulcers and urinary tract infections; assay type: in vivo; conditions: 45 minutes after injection, FIG. 16B
Description: (§3) In this example, the PAMAM-G8 contrast agent is compared to GPDM. PAMAM-G8 was prepared as described in Example 2, and GPDM was purchased (Schering AG, Berlin, Germany). Animal models, administration of the contrast agents, and 3D-micro-MRL were as described in Example 2.
Nude mice that develop spontaneous oral ulcers and urinary tract infections also were examined.

[3] = tested on: lymph nodes infiltrated with MC-38 colorectal cancer cells; assay: 3D-MRL in MC38 colorectal cancer lymph node metastasis model; assay type: in vivo, C57BL6 mice
Description: In addition, 10-week-old C57BL6 mice (NCI, Frederick, Md.) bearing lymph node metastases of MC38 colorectal cancer cells following either intravenous or subcutaneous injection were used as a mouse model manifesting lymph node metastasis.
The mice were anesthetized with 1.15 mg sodium pentobarbital (Dainabot, Osaka, Japan) i.p., and then injected intracutaneously with 0.1 μmolGd of PAMAM-G8, DAB-G5, PAMAM-G4, Gadomer-17, or GPDM into four middle phalanges in all four extremities. […]
as §2, with “agents.” for “agents. The coronal images were reconstructed with 0.6-mm section thickness at every 0.3-mm.”

deep lymphatic system = assay: Whole-body dynamic 3D-micro-MR lymphangiography of normal mice (Example 2); assay type: in vivo; conditions: for Number of Mice in Which the Thoracic Duct was Visualized/Number of Mice Examined: Normal Mice, 0.1 μmolGd intracutaneously into four middle phalanges
Description: as §1
(§4) A 3D-fast spoiled gradient echo [3D-fastSPGR (efgre3d package; Signa Horizon, GE); repetition time/echo time 28.5/7.9 msec; inversion time 65 msec; 31.2 kHz, flip angle 30°, four excitations; 40 slice-encoding steps; scan time 7 min 36 seconds] with chemical shift fat-suppression was used 10, 20, 30, and 45 min after injection of the contrast agents. The coronal images were reconstructed with 0.6-mm section thickness at every 0.3-mm. The FOV was 6×3 cm and the size of the matrix was 512×256. The intensities of the regions of interest (ROIs) (for example, a whole axillary lymph node, and the liver) were measured, and then the time-intensity curves analyzed. The data were expressed as the axillary lymph node-to-muscle and the axillary lymph node-to-liver ratios. The slice data were processed into 3D images using the MIP method with the same window and level (window 3500 and level 2300) (Advantage Windows, General Electric Medical System). Two board-certified radiologists separately read a set of stereo views of 3D-MRL for all studies, and estimated the visualization of the thoracic duct. After imaging, the mice were sacrificed by carbon dioxide inhalation.
Statistical analyses were performed using either Student's t-test or a one-way analysis of variance (ANOVA), with a pairwise comparison using the Bonferroni method for signal intensity curves (Statview; SAS Institute Inc., Cary, N.C.).

[4] = Distribution and survival properties of the dendrimer conjugates; conditions: in vivo
[5] = tested on: deep lymph nodes, thoracic duct and lymphatic vessels; assay: Whole-body 3D-micro-MR lymphangiography of normal mice, PAMAM-G8 versus GPDM (Example 3); assay type: in vivo
Description: as §1, §4, §3

[6] = tested on: lymphatic vessels in Concanavalin A lymphangitis; assay: 3D-micro-MRL in Concanavalin A lymphangitis model; assay type: in vivo, C57BL6 mice; conditions: FIGS. 10, 14A
Description: To generate a lymphangitis model, Concanavalin A ([…]) (Sigma, St. Louis, Mo.) was injected intravenously into C57BL6 mice (NCI, Frederick, Md.) 24 hours before MRI was performed.
The mice were anesthetized with 1.15 mg sodium pentobarbital (Dainabot, Osaka, Japan) i.p., and then injected intracutaneously with 0.1 μmolGd of PAMAM-G8, DAB-G5, PAMAM-G4, Gadomer-17, or GPDM into four middle phalanges in all four extremities. Dynamic micro-MR images were obtained using a 1.5-Tesla superconductive magnet unit (Signa LX, General Electric Medical System, Milwaukee, Wis.) with a round birdcage type coil of 3 cm diameter fixed by a custom-made coil holder. […]
A 3D-fast spoiled gradient echo [3D-fastSPGR (efgre3d package; Signa Horizon, GE); repetition time/echo time 28.5/7.9 msec; inversion time 65 msec; 31.2 kHz, flip angle 30°, four excitations; 40 slice-encoding steps; scan time 7 min 36 seconds] with chemical shift fat-suppression was used 10, 20, 30, and 45 min after injection of the contrast agents. […] The intensities of the regions of interest (ROIs) (for example, a whole axillary lymph node, and the liver) were measured, and then the time-intensity curves analyzed. The data were expressed as the axillary lymph node-to-muscle and the axillary lymph node-to-liver ratios. […]

## PAMAM-G7D-(Gd-1B4M)1024 dendrimer conjugate [PAMAM-G8]
[1]; FIG. 11
  Visualization of dilation of lymphatic vessels: best visualized with PAMAM-G8
[1]; FIGS. 11, 15A
  Lymph node findings on 3D-micro-MRL: considerable multiple lymph node swellings with central filling defects; also recorded: enlargement and a lack of enhancement within several of the lymph nodes
[2]
  Lymph node findings in infection model: irregular dilation of the lymphatic vessels in the lymph nodes
[3]; 45 minutes after injection, FIG. 12 left image
  Findings on 3D-MRL in mouse with lymph node metastasis: dilated lymphatic vessels surrounding the tumor and a collateral lymphatic vessel
[3]; FIG. 12 right image
  Findings on 3D-MRL in mice with subcutaneously xenografted MC-38 tumor: did not show any abnormalities in either the lymph nodes or the lymphatic vessels
Deep lymphatic system; 10 min
  Number of Mice in Which the Thoracic Duct was Visualized/Number of Mice Examined: 10/10
Deep lymphatic system; 20 min
  Number of Mice in Which the Thoracic Duct was Visualized/Number of Mice Examined: 10/10
Deep lymphatic system; 30 min
  Number of Mice in Which the Thoracic Duct was Visualized/Number of Mice Examined: 10/10
Deep lymphatic system; 45 min
  Number of Mice in Which the Thoracic Duct was Visualized/Number of Mice Examined: 10/10
Deep lymphatic system; T1-weighted signal, all time points examined, P<0.01, FIG. 9A
  Axillary lymph node-to-background (muscle) signal intensity ratio, comparison between agents: significantly higher than that measured with Gadomer-17 and GPDM
Deep lymphatic system; all time points examined, P<0.01, FIG. 9B
  Axillary lymph node-to-liver signal intensity ratio, comparison between agents: nearly equivalent, but were significantly higher than that measured with GPDM
Deep lymphatic system; normal mice
  Visualization of the lymphatic vessels, comparison between agents: better visualized with PAMAM-G8 compared to all other agents examined
Deep lymphatic system; normal mice, 10 to 45 min after intracutaneous injection, FIGS. 7, 8
  Visualization of the deep lymph nodes: enabled most of the deep lymph nodes to be visualized
Deep lymphatic system; normal mice, all times after administration
  Visualization by a radiologist of the thoracic duct: in all mice at all times after administration
[4]
  Distribution within the lymphatic system: lymphotropic behavior (accumulation in the lymph system) and minimal leakage out of the lymphatic vessels
[5]
  Visualization of other lymphatic vessels: better visualized with PAMAM-G8 than with GPDM
[5]; intracutaneous injection, 0.05 mmolGd/kg (FIG. 13)
  Visualization of deep lymph nodes throughout the body: most deep lymph nodes throughout the body were visualized
[5]; intracutaneous injection, FIG. 13
  Visualization of the thoracic duct: visualized in all six mice
[6]
  Detection of dilation of the lymphatic vessels: demonstrated the remarkable dilation of the lymphatic vessels throughout the body, especially in the liver; also recorded: able to detect remarkable dilation of lymphatic vessels
